Measurements taken from ChEMBL document CHEMBL2040724, “New synthesis and promising neuroprotective role in experimental ischemic stroke of ONO-1714” (Eur J Med Chem, 2012).
pIC50, pKi: −log10 of the molar value. The source made the active and inactive calls. The calls are words filed in the database; no cut-off is given here.

Assays:
[1] = target: Nitric oxide synthase, inducible (Rattus norvegicus, UniProt Q06518); experiment: Inhibition of rat iNOS
[2] = Cytotoxicity against CD-1 mouse peritoneal macrophages assessed as survival rate at 100 uM after 48 hrs by SRB assay; assay type: cell-based, Peritoneal macrophage cell; details: read-out: Activity
[3] = Cytotoxicity against CD-1 mouse peritoneal macrophages assessed as survival rate at 10 uM after 48 hrs by SRB assay; assay type: cell-based, Peritoneal macrophage cell; details: read-out: Activity
[4] = target: T1, Nitric oxide synthase, inducible (Mus musculus, UniProt P29477); experiment: Inhibition of mouse recombinant iNOS activity assessed as conversion of [14C]-L-arginine to [14C]-L-citrulline by liquid scintillation counting
T1 sequence (P29477 whole entry): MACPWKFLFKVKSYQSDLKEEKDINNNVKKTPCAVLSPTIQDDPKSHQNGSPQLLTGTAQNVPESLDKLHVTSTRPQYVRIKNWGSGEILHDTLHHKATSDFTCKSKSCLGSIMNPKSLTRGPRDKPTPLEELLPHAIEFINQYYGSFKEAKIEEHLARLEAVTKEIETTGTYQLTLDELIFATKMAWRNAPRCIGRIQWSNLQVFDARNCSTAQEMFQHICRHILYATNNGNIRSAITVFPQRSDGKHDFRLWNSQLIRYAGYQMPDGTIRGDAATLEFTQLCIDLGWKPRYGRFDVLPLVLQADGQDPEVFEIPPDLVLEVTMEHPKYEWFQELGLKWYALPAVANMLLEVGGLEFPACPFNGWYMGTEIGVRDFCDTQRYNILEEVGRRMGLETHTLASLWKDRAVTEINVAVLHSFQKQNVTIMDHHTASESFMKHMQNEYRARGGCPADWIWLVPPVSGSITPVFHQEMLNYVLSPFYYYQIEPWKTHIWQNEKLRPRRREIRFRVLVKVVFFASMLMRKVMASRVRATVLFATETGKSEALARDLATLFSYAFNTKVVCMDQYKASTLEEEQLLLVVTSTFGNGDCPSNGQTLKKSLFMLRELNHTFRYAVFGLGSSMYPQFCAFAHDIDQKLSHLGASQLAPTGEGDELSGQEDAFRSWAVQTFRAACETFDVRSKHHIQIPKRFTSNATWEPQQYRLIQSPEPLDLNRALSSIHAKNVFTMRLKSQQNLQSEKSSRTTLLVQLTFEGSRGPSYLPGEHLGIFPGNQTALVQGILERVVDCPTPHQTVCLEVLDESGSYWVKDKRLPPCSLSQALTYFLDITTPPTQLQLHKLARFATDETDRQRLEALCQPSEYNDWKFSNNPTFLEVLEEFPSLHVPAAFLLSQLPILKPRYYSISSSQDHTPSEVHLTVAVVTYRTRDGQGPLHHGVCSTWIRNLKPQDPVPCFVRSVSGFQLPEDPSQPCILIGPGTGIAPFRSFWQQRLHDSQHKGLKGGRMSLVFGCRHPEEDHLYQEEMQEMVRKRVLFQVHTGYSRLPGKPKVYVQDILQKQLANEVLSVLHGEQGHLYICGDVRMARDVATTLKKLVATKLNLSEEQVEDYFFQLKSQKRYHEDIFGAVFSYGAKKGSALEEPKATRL

[5] = Cytotoxicity against CD-1 mouse peritoneal macrophages assessed as survival rate at 0.1 uM after 48 hrs by SRB assay; assay type: cell-based, Peritoneal macrophage cell; details: read-out: Activity
[6] = target: Nitric oxide synthase, inducible (Homo sapiens, UniProt P35228); experiment: Inhibition of human iNOS
Sequence of Nitric oxide synthase, inducible (Homo sapiens, UniProt P35228) (P35228 whole entry): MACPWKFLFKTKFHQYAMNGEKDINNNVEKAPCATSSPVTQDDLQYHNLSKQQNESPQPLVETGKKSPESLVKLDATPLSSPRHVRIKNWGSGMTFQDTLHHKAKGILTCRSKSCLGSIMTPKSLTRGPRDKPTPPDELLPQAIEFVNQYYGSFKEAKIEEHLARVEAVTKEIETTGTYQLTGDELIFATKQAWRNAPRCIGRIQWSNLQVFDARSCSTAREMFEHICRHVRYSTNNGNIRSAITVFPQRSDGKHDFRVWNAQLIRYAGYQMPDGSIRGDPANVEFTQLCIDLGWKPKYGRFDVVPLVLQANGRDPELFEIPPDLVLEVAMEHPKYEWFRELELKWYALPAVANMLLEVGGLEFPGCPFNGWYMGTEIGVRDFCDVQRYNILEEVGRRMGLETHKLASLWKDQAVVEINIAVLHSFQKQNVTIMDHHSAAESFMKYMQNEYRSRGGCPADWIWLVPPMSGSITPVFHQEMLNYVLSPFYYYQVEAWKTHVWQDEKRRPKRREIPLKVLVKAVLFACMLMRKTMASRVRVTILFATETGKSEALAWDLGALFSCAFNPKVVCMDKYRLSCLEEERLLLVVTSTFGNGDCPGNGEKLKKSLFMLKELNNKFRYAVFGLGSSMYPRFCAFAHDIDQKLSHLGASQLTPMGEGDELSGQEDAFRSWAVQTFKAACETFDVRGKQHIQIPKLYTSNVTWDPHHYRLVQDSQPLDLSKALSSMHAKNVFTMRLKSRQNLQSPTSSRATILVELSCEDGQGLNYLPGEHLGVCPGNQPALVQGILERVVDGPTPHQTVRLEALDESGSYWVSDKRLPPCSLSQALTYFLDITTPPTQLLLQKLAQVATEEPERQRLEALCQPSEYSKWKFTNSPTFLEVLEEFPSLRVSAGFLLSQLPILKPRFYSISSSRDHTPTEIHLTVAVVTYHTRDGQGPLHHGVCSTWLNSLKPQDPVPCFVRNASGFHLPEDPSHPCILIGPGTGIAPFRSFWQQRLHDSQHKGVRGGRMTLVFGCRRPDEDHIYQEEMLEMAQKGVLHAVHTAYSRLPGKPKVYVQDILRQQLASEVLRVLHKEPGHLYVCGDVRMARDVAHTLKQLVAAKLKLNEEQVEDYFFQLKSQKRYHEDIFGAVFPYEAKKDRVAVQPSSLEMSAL

[7] = Cytotoxicity against CD-1 mouse peritoneal macrophages assessed as survival rate at 1 uM after 48 hrs by SRB assay; assay type: cell-based, Peritoneal macrophage cell; details: read-out: Activity
[8] = system: Peritoneal macrophage cell; experiment: Inhibition of LPS/INFgamma-induced nitric oxide production in CD-1 mouse peritoneal macrophages after 48 hrs by Griess reaction; details: CD-1, Peritoneal macrophage cell
Mus musculus = experiment: Neuroprotective activity in permanent middle cerebral artery occlusion model of CD-1 mouse brain assessed as reduction of infarct volume administered subcutaneously by using Alzet mini-osmotic pumps for 21 days before and 48 hrs after pMCAO by TTC staining; assay type: functional, organism-based

Sequence of Nitric oxide synthase, inducible (Rattus norvegicus, UniProt Q06518) (Q06518 whole entry): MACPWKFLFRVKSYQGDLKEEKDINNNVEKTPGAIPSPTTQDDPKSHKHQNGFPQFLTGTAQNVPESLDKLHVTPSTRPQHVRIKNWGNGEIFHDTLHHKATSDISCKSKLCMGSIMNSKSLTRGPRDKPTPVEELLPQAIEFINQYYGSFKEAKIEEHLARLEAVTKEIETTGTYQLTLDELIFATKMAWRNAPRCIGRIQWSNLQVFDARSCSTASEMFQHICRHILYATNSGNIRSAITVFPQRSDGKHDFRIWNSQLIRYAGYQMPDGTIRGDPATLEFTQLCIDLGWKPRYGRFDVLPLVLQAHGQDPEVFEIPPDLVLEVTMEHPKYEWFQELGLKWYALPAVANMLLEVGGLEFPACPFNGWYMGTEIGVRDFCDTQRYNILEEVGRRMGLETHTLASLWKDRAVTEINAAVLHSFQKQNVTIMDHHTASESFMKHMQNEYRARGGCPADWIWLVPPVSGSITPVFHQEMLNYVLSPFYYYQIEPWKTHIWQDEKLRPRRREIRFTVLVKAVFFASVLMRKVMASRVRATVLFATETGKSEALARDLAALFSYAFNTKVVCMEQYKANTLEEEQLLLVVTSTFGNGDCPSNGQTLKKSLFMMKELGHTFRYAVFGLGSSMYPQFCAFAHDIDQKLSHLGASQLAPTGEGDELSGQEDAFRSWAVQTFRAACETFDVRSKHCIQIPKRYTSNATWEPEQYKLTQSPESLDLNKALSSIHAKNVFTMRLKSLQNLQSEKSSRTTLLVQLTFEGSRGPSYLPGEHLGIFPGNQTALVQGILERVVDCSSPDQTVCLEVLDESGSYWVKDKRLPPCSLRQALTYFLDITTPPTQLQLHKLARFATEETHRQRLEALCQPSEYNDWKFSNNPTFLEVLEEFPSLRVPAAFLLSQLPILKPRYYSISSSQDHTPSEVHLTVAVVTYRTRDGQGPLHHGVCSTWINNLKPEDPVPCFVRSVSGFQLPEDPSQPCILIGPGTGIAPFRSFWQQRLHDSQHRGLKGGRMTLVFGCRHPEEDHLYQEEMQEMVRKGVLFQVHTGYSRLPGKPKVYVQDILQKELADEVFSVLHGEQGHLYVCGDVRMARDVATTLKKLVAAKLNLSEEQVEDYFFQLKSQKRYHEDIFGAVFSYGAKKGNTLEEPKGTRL

Question: With `C[C@H]1CC(=N)N[C@@H]2[C@H](Cl)[C@@H]21` as the compound, how does the pKi [1] read?
Answer: 8.74

Question: And the viability at 48 h, 100 µM [2]?
Answer: 97.2%

Question: What about the viability at 48 h, 10 µM [3] of the same compound?
Answer: 99.1%

Question: What about the pIC50 [4] of the same compound?
Answer: 7.96

Question: What about the viability at 48 h, 0.1 µM [5] of the same compound?
Answer: 98.4%

Question: And the pKi [6]?
Answer: 8.74

Question: What about the viability at 48 h, 1 µM [7] of the same compound?
Answer: 93.6%

Question: With `C[C@H]1CC(N)=N[C@@H]2[C@H](Cl)[C@@H]21` as the compound, how does the pIC50 [8] read?
Answer: 6.09

Question: What about the Activity (Mus musculus) of the same compound?
Answer: Active
